Experimental data published in patent publication EP0354818A2, “Pharmaceutical compositions containing polyaromatic compounds as active ingredient and their use” (HADASSAH MEDICAL ORGANIZATION, priority 1988, dated 1990).

How the values were obtained:
[1] = biological target: T1, ESb mouse lymphoma heparanase (Mus musculus, UniProt Q6YGZ1); experiment: Inhibition of heparanase degradation of 35S labelled ECM; type: biochemical; conditions: compound 10 µgr/ml, 24 hrs incubation; for Total low-mol-wt. HS fragments released by heparanase (cpm): control 17,756 cpm
T1 construct: endogenous in cells; host or cells: ESb mouse lymphoma cells
T1 sequence (Q6YGZ1 150-535 limits assumed): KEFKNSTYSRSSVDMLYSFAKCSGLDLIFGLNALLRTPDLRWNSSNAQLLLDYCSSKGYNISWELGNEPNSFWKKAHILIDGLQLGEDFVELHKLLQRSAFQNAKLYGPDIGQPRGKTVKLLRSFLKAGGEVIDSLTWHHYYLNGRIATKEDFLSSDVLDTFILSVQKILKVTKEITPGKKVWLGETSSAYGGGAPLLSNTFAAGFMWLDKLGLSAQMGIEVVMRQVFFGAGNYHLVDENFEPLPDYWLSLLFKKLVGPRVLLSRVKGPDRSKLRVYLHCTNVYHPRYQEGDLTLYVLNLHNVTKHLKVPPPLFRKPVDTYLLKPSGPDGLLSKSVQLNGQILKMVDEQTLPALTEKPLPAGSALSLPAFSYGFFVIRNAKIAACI
T1 sequence (Q6YGZ1 28-101 limits assumed): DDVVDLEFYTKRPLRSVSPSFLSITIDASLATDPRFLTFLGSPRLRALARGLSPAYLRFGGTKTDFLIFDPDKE
Experimental: The ability of several of the above mentioned compounds to inhibit lymphoma-cell derived heparanase was tested in the assay system described by Vlodavsky et. al. (Cancer Research. 43: 2704-2711 (1983). ³⁵S labelled ECM was incubated for 24 hrs with ESb mouse lymphoma heparanase in the presence of 10 ugr ml of the indicated compounds. Degradation of the sulfated glycosaminoglycan was followed by gel filtration of the supernatants. Heparanase activity is expressed as the total amount of labelled low-molecular-weight fragments released from the ECM substrate. The results are summarized in Table III.

lipoprotein lipase (LPL) = biological target: T2, lipoprotein lipase (LPL) (Rattus norvegicus, UniProt Q06000); experiment: LPL activity in cultured heart cells and medium; type: cell-based; conditions: 24 hrs incubation of heart cells; for LPL activity: total: cells plus medium; for % increase in the total: versus 0 M
T2 construct: endogenous in cells; host or cells: F1 heart cell cultures from newborn rat hearts (mainly non-beating mesenchymal cells)
T2 sequence (Q06000 28-474): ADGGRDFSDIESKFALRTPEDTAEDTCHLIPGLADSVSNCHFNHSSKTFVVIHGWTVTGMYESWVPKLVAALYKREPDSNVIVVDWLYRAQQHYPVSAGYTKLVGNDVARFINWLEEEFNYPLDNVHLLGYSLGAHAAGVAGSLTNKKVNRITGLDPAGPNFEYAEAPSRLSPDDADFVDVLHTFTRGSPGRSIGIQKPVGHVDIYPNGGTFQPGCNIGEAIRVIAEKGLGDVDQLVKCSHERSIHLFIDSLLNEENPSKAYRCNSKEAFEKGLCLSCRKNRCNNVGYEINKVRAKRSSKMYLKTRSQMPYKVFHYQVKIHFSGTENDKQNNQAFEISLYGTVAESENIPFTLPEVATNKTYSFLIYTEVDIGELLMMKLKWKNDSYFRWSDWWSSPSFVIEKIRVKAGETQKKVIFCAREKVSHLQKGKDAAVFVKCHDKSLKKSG
Experimental: F₁ heart cell cultures were prepared from newborn rat hearts as previously described (Chajek, T. et al, Biochem. Biophys. Acta 528, 456-474(1978)). They consisted mainly of non-beating mesenchymal cells and were used 8-12 days after their isolation.
The enzyme activity was determined on aliquots of medium and of homogenates of cells which had been released from the petri dish with a rubber policeman in 1 ml of 0.025 M NH₃/NH₄C1 buffer (pH 8.1) containing 1 unit/ml of heparin. The assay system consisted of 0.1 ml of medium or 0.1 ml of cell homogenate ([…]) and 0.1 ml of substrate containing labeled triolein, prepared according to the method of Nilsson-Ehle and Schotz, (J. Lipid Res. 17, 536-541 (1976)). Incubations were carried out at 37°C for 45 min. The reaction was stopped by the addition of methanol/chloroform/heptane (1,4:1.25:1, v/v) and the extraction of fatty acids was performed according to the method of Belfrage and Vaughan (J. Lipid Res. 10, 341-344 (1969), as modified by Nilsson-Ehle and Schotz. Enzyme activity was calculated according to the formula of Nilsson-Ehle and Schotz.

fresh human blood = experiment: Anticoagulant effect: partial thromboplastin time (PTT) in blood samples; conditions: citrated human blood, after addition of Ca++, control 30.5
Experimental: 0.25 ml of the indicated concentration of the drug (x10, diluted in saline) were added to 2.25 ml of fresh human blood, collected in the presence of citrate. PTT was measured following the addition of Ca⁺⁺.

LPL = biological target: T3, LPL (Rattus norvegicus, UniProt Q06000); experiment: Plasma levels of LPL after oral administration to rats; type: in vivo; conditions: 1ml of 10%-20% solution
T3 construct: from tissue; host or cells: rat plasma (in vivo, after oral aluminon)
T3 sequence (Q06000 28-474): T2 sequence (Q06000 28-474)
Description: Moreover, since aluminon can be absorbed through the gastrointestinal tract, it can be used as an orally administrable anticoagulant (as opposed to heparin which has to be given by injection).

O=S(=O)(O)c1ccc(N=C2C=CC(=C(c3ccc(Nc4ccc(S(=O)(=O)O)cc4)cc3)c3ccc(Nc4ccc(S(=O)(=O)O)cc4)cc3)C=C2)cc1 [Methyl Blue]
% Inhibition [1]: 23% | Total low-mol-wt. HS fragments released by heparanase (cpm) [1]: 13,676 cpm

Cc1cc(-c2ccc(/N=N/c3ccc4c(S(=O)(=O)O)cc(S(=O)(=O)O)c(N)c4c3O)c(C)c2)ccc1/N=N/c1ccc2c(S(=O)(=O)O)cc(S(=O)(=O)O)c(N)c2c1O [Evan's Blue]
Total low-mol-wt. HS fragments released by heparanase (cpm) [1]: 6,986 cpm | LPL activity: total (lipoprotein lipase (LPL); Evan's Blue 10⁻³ M): 7749 m mole FFA/h/dish | % increase in the total (lipoprotein lipase (LPL); Evan's Blue 10⁻³ M): +139.4% | LPL activity: total (lipoprotein lipase (LPL); Evan's Blue 10⁻⁴ M): 5230 m mole FFA/h/dish | % increase in the total (lipoprotein lipase (LPL); Evan's Blue 10⁻⁴ M): +61.6% | LPL activity: total (lipoprotein lipase (LPL); Evan's Blue 10⁻⁵ M): 4288 m mole FFA/h/dish | % increase in the total (lipoprotein lipase (LPL); Evan's Blue 10⁻⁵ M): +32.5%

CCN(Cc1cccc(S(=O)(=O)O)c1)c1ccc(C(=C2C=CC(=[N+](CC)Cc3cccc(S(=O)(=O)O)c3)C=C2)c2ccc(O)cc2S(=O)(=O)[O-])cc1 [Fast Green]
% Inhibition [1]: 32%

O=C(O)C1=CC(=C(c2ccc(O)c(C(=O)O)c2)c2ccc(O)c(C(=O)O)c2)C=CC1=O [Aluminon]
PTT (fresh human blood; Aluminon final conc. 0.01 mg/ml): 30.5 s | PTT (fresh human blood; Aluminon final conc. 0.1 mg/ml): 190 s | PTT (fresh human blood; Aluminon final conc. 1 mg/ml): >300 s | Total low-mol-wt. HS fragments released by heparanase (cpm) [1]: 3,822 cpm | plasma levels of LPL (LPL): elevated by about an order of magnitude
